molecular target: purified human Factor XIIa (Homo sapiens (Human), UniProt P00748); assay: Factor XIIa assay; format: biochemical; conditions: substrate n-Acetyl-Lys-Pro-Arg-AFC 100 μM, pH 7.4, read-out: FXIIa IC50
Method: “FXIIa IC50(nm)” is Human Factor XIIa IC50 (nm).
The effectiveness of a compound of the present invention as an inhibitor of Coagulation Factor XIIa can be determined using a relevant purified serine protease, and an appropriate synthetic substrate. The rate of hydrolysis of the chromogenic or fluorogenic substrate by the relevant serine protease was measured both in the absence and presence of compounds of the present invention. Assays were conducted at room temperature or at 37° C. […] A decrease in the rate of fluorescence change in the presence of inhibitor is indicative of enzyme inhibition. Such methods are known to one skilled in the art. The results of this assay are expressed as the IC50, the inhibitor concentration causing a 50% decrease in Factor XIIa protease activity.
Factor XIIa activity determinations were made in 50 mM HEPES buffer containing 150 mM NaCl, 5 mM CaCl2, and 0.1% PEG 8000 (polyethylene glycol; JT Baker or Fisher Scientific) at pH 7.4. Determinations were made using purified human Factor XIIa at a final concentration of […] (Sekisui Diagnostics) and the synthetic substrate, n-Acetyl-Lys-Pro-Arg-AFC, TFA salt (Sigma # C6608) at a concentration of 100 μM.
Times required to achieve equilibration between enzyme and inhibitor were determined in control experiments. Initial velocities of product formation in the absence (Vo) or presence of inhibitor (Vi) were measured.

Sequence of purified human Factor XIIa (P00748 373-615): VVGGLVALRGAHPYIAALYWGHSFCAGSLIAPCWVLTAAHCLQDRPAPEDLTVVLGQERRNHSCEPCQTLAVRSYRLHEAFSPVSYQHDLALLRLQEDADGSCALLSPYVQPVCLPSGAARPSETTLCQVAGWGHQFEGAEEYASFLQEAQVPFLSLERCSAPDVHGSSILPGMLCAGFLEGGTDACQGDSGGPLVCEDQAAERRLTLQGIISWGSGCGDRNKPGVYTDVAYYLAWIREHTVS
Sequence of purified human Factor XIIa (P00748 20-372 partner): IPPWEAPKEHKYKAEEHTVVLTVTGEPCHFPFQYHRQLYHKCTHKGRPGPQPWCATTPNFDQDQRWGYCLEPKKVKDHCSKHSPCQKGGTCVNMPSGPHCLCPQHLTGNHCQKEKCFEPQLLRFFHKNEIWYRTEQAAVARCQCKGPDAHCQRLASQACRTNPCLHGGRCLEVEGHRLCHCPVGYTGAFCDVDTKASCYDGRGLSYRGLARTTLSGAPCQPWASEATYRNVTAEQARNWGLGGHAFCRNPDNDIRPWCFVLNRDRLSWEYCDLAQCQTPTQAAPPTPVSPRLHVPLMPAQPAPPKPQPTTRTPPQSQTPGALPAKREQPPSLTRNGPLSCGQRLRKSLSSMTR

IC50 | SMILES
0.0659 µM | CC(=O)OCCCC[C@@H](NC1CCCCC1)C(=O)N1CC[C@@H](NC(=O)N2CCC3(CC2)CC3)[C@@H](C(=O)NCc2cccs2)C1 [Compound 26, (5R)-6-{(3S,4R)-4-[(6-azaspiro[2.5]oct-6-ylcarbonyl)amino]-3-[(thiophen-2-ylmethy)carbamoyl]pi-peridin-1-yl}-5-(cyclohexylamino)-6-oxohexyl acetate]
0.11 µM | CN(C)CCCC[C@H](C(=O)N1CC[C@@H](NC(=O)N2CCCc3ccccc32)[C@@H](C(=O)NCc2cccs2)C1)N(C)C1CCCCC1 [Compound 27, N-{(3S,4R)-1-(N~2~- cyclohexyl-N~2~,N~6~,N~6~- trimethyl-D-lysyl)-3-[(thiophen-2-ylmethyl)carbamoyl]pi-peridin-4-yl}-3,4-dihydroquinoline-1(2H)-carboxamide]
0.102 µM | CN(C)CCCC[C@@H](NC1CCCCC1)C(=O)N1CC[C@@H](NC(=O)N2CCCc3ccccc32)[C@@H](C(=O)NCc2cccs2)C1 [Compound 28, N-{(3S,4R)-1-(N~2~- cyclohexyl-N~6~,N~6~-dimethyl-D-lysyl)-3-[(thiophen-2-ylmethyl)carbamoyl]pi-peridin-4-yl}-3,4-dihydroquinoline-1(2H)-carboxamide]
0.0376 µM | Cc1ccc(C(=O)N[C@@H]2CCN(C(=O)[C@@H](CCCCN(C)C)N(C)C3CCCCC3)C[C@@H]2C(=O)NCc2cccs2)c(F)c1 [Compound 29, (3S,4R)-1-(N~2~- cyclohexyl-N~2~,N~6~,N~6~- trimethyl-D-lysyl)-4-{[(2-fluoro-4-methyl-phenyl)carbonyl]amino}-N-(thiophen-2-ylmethyl)piperidine-3-carboxamide]
0.0501 µM | CN(C1CCCCC1)[C@H](CCCCNS(C)(=O)=O)C(=O)N1CC[C@@H](NC(=O)N2CCC3(CC2)CC3)[C@@H](C(=O)NCc2cccs2)C1 [Compound 30, N-{(3S,4R)-1-[N~2~- cyclohexyl-N~2~- methyl-N~6~- (methylsulfonyl)-D-lysyl]-3-[(thiophen-2-ylmethyl)carbamoyl]pi-peridin-4-yl}-6-azaspiro[2.5]octane-6-carboxamide]
0.0015 µM | CN(C)CCCC[C@@H](NC1CCC2(CC1)CCN(Cc1ccccc1)C2)C(=O)N1CC[C@@H](NC(=O)N2CCC3(CC2)CC3)[C@@H](C(=O)NCc2cccs2)C1 (stereo partly drawn) [Compound 31, N-{(3S,4R)-1-[N~2~- (2-benzyl-2-azaspiro[4.5]dec-8-yl)-N~6~,N~6~-dimethyl-D-lysyl]-3-[(thiophen-2-ylmethyl)carbamoyl]pi-peridin-4-yl}-6-azaspiro[2.5]octane-6-carboxamide]
0.0225 µM | CN(CCCC[C@@H](NC1CCCCC1)C(=O)N1CC[C@@H](NC(=O)N2CCC3(CC2)CC3)[C@@H](C(=O)NCc2cccs2)C1)S(C)(=O)=O [Compound 32, N-{(3S,4R)-1-[N~2~- cyclohexyl-N~6~- methyl-N~6~- (methylsulfonyl)-D-lysyl]-3-[(thiophen-2-ylmethyl)carbamoyl]pi-peridin-4-yl}-6-azaspiro[2.5]octane-6-carboxamide]
0.0151 µM | CN(C)CCCC[C@H](C(=O)N1CC[C@@H](NC(=O)N2CCC3(CC2)CC3)[C@@H](C(=O)NCc2cccs2)C1)N(C)C1CCCCC1 [Compound 33, N-{(3S,4R)-1-(N~2~- cyclohexyl-N~2~,N~6~,N~6~- trimethyl-D-lysyl)-3-[(thiophen-2-ylmethyl)carbamoyl]pi-peridin-4-yl}-6-azaspiro[2.5]octane-6-carboxamide]
0.0057 µM | CN(C)CCCC[C@@H](NC1CCCCC1)C(=O)N1CC[C@@H](NC(=O)N2CCC3(CC2)CC3)[C@@H](C(=O)NCc2cccs2)C1 [Compound 34, N-{(3S,4R)-1-(N~2~- cyclohexyl-N~6~,N~6~-dimethyl-D-lysyl)-3-[(thiophen-2-ylmethyl)carbamoyl]pi-peridin-4-yl}-6-azaspiro[2.5]octane-6-carboxamide]
0.0195 µM | CS(=O)(=O)N(CCCC[C@@H](NC1CCCCC1)C(=O)N1CC[C@@H](NC(=O)N2CCC3(CC2)CC3)[C@@H](C(=O)NCc2cccs2)C1)CC(F)(F)F [Compound 35, N-{(3S,4R)-1-[N~2~- cyclohexyl-N~6~- (methylsulfonyl)-N~6~- (2,2,2-trifluoroethyl)-D-lysyl]-3-[(thiophen-2-ylmethyl)carbamoyl]pi-peridin-4-yl}-6-azaspiro[2.5]octane-6-carboxamide]
0.428 µM | O=C(NCc1cccs1)[C@H]1CN(C(=O)[C@@H](CC2CCCCC2)NC2CCCCC2)CC[C@H]1NC(=O)N1CCCC2(CCNC2=O)C1 (stereo partly drawn) [Compound 36, N-((3S,4R)-1-((R)-3-cyclohexyl-2-(cyclohexylamino)pro-panoyl)-3-((thiophen-2-ylmethyl)carbamoyl)pi-peridin-4-yl)-1-oxo-2,7-diazaspiro[4.5]decane-7-carboxamide]
